Assay results reported in patent US20200397894A1, “COMPOSITIONS AND METHODS FOR TREATING CANCER” (University of Virginia Patent Foundation, priority 2016, published 2020).
“And” between values parts separate entries of the source, which are not always exact repeats. Identical values can stand only once.

Columns and labels:
Type in all cases: cell-based, human
[1] = system: FaDu cells; test: Rereplication by propidium iodide staining and FACS (HNSCC)
Method: The effect of pevonedistat treatment or CDT2, geminin, or EMI1 knockdown on the cell cycle (and induction of DNA rereplication) was assessed by flow cytometry with propidium iodide (PI) staining. Cells were harvested at 72 or 96 hours post-treatment with pevonedistat or post-transfection, respectively. Cells were collected, washed with PBS, and resuspended in ethanol (75%). Cells were subsequently treated with 20 μg of DNase-free RNase and stained with PI following the manufacturer's protocol. FACSCAN™ (Becton, Dickinson and Company, Franklin Lakes, N.J., United States of America) was used to analyze the samples and G0-G1, S, and G2-M fractions were segmented. Subsequent analysis using FLOWJO® (FLOWJO, LLC, Ashland, Oreg., United States of America) and ModFit (Verity Software House, Topsham, Me., United States of America) software was used to determine apoptotic and re-replicating fractions. Where indicated, Cal27 and FaDu cells were treated with pevonedistat for 48 hours and pulsed with BrdU (10 nM) for 1 hour in the dark prior to harvesting. Cells were washed with PBS and staining solution before fixation and permeabilization steps according to the manufacturer's protocol. Cells were subsequently stained with anti-BrdU antibody solution for 20 minutes at room temperature, washed, and stained with 7-AAD for 30 minutes at 4° C. Cells were resuspended in 1 ml of staining buffer and stored at 4° C. overnight before analysis. Sampled were analyzed on a FACSCAN™ (Becton, Dickinson and Company, Franklin Lakes, N.J., United States of America), and different fractions of BrdU positive cells were determined using FLOWJO® (FLOWJO, LLC, Ashland, Oreg., United States of America) and ModFit (Verity Software House, Topsham, Me., United States of America) software.

[2] = system: FaDu cells; test: Clonogenic survival assay for radiation sensitivity; parameters: SF4: unit not given here; conditions: for SF4: S 0.1; for SER (sensitivity enhancement ratio): at 10% survival
Method: (§1) The effect of pevonedistat treatment or transient silencing of CDT2, geminin, or EMI1 on cell proliferation or on radiation sensitivity was tested using clonogenic survival assays. Cells were transfected with the appropriate si-RNA 48 hours prior to seeding. Cells were then counted using COUNTESS™ Automated Cell Counter (INVITROGEN™, Carlsbad, Calif., United States of America) and were seeded at 15,000 cells/plate in 60 mm dishes. Cells were irradiated 24 hours after seeding with various doses and were cultured for 7-10 days. Once colonies reached the appropriate size (>50 cells each), cells were washed twice with cold PBS, fixed in cold 100% methanol for 10 minutes, and stained with crystal violet (0.5%) for 10 minutes. The plates were washed, dried, and imaged using IMAGE LAB™ software (BioRad Laboratories, Inc., Hercules, Calif., United States of America). QUANTITY ONE® software (BioRad Laboratories, Inc., Hercules, Calif., United States of America) was used to quantify the number of colonies and survival curves were established based on the linear quadratic model, using the formula S=e^−αD-βD2; where S represents the surviving fraction and D the dose of irradiation. Results are represented as mean standard deviation (SD) of three independent experiments normalized to the corresponding non-irradiated plates for each group. When the effect of pevonedistat on cell radiosensitivity was tested, cells were seeded at 15,000 cells/60 mm plate and allowed to adhere for 4-6 hours. Pevonedistat was then added upon cell adherence at varying concentrations and cells were irradiated the following day. The duration of the experiment and the stopping procedure were as described above.

[3] = system: Cal27 cells; test: as above; parameters: SF4: unit not given here; conditions: for SF4: S 0.1; for SER (sensitivity enhancement ratio): at 10% survival
Method: as §1

[4] = system: cullin neddylation in Cal27 or FaDu cells; test: Immunoblotting of cullin neddylation; conditions: 50 nM pevonedistat, 24 or 48 hours
Method: HNSCC cells were lysed using radio-immunoprecipitation assay (RIPA) lysis buffer (50 mM Tris, pH 8.0; 150 mM NaCl, 1% NP-40; 0.5% sodium deoxycolate; 0.1% SDS; 1 mM Benzamidin-HCl; 0.5 μg/ml Leupeptin; 0.5 μg/ml Aprotinin; 1 μg/ml pepstatin; 20 mM NaF; 20 mM Na3VO4). Equal amounts of protein were electrophoretically separated in a polyacrylamide 8-12% gel (Bio-Rad Laboratories, Inc., Hercules, Calif., United States of America), trans-blotted to a nitrocellulose membrane, and incubated with primary antibodies for one hour at room temperature or overnight at 4° C. The immunoblot signals were detected by enhanced chemiluminescence (EMD Millipore Corporation, Billerica, Mass., United States of America).

[5] = 10 nM pevonedistat 24 hours prior to irradiation
[6] = 20 nM pevonedistat 24 hours prior to irradiation
[7] = 40 nM pevonedistat 24 hours prior to irradiation
[8] = 60 nM pevonedistat 24 hours prior to irradiation
[9] = Cal27, 20 nM pevonedistat 24 hours prior to irradiation
[10] = Cal27, 40 nM pevonedistat 24 hours prior to irradiation
[11] = Cal27, 60 nM pevonedistat 24 hours prior to irradiation
[12] = Cal27, 80 nM pevonedistat 24 hours prior to irradiation

NS(=O)(=O)OCC1CC(n2ccc3c(NC4CCc5ccccc54)ncnc32)CC1O [pevonedistat, ((1S,2S,4R)-4-(4-((1S)-2,3-Dihydro-H-inden-1-ylamino)-7H-pyrrolo(2,3-d)pyrimidin-7-yl)-2-hydroxycyclopentyl)methyl sulphamate]
cells undergoing rereplication ([1]; 40 nM pevonedistat 48 hours plus 2 Gy at the 24 hour time point): 42.2% | cells undergoing rereplication ([1]; 40 nM pevonedistat for 48 hours): 21.6% | cells exhibiting >4N DNA content ([1]; 100 nM pevonedistat, PI staining): 60.4% | α (linear quadratic model) [2, 5]: 0.105 | β (linear quadratic model) [2, 5]: 0.017 | SF4 ([2]; 10 nM pevonedistat): 8.979 | SER (sensitivity enhancement ratio) ([2]; 10 nM pevonedistat): 1.055 | α (linear quadratic model) [2, 6]: 0.242 | β (linear quadratic model) [2, 6]: 0.006 | SF4 ([2]; 20 nM pevonedistat): 7.987 | SER (sensitivity enhancement ratio) ([2]; 20 nM pevonedistat): 1.186 | α (linear quadratic model) [2, 7]: 0.241 | β (linear quadratic model) [2, 7]: 0.014 | SF4 ([2]; 40 nM pevonedistat): 6.830 | SER (sensitivity enhancement ratio) ([2]; 40 nM pevonedistat): 1.387 | α (linear quadratic model) [2, 8]: 0.282 | β (linear quadratic model) [2, 8]: 0.013 | SF4 ([2]; 60 nM pevonedistat): 6.328 | SER (sensitivity enhancement ratio) ([2]; 60 nM pevonedistat): 1.49 and 1.497 | α (linear quadratic model) [3, 9]: 1.50 × 10^−13 | β (linear quadratic model) [3, 9]: 0.049 | SF4 ([3]; Cal27, 20 nM pevonedistat): 6.893 | SER (sensitivity enhancement ratio) ([3]; Cal27, 20 nM pevonedistat): 1.171 | α (linear quadratic model) [3, 10]: 0.108 | β (linear quadratic model) [3, 10]: 0.052 | SF4 ([3]; Cal27, 40 nM pevonedistat): 5.692 | SER (sensitivity enhancement ratio) ([3]; Cal27, 40 nM pevonedistat): 1.419 | α (linear quadratic model) [3, 11]: 0.471 | β (linear quadratic model) [3, 11]: 0.009 | SF4 ([3]; Cal27, 60 nM pevonedistat): 4.457 | SER (sensitivity enhancement ratio) ([3]; Cal27, 60 nM pevonedistat): 1.812 | α (linear quadratic model) [3, 12]: 0.906 | β (linear quadratic model) [3, 12]: −0.020 | SF4 ([3]; Cal27, 80 nM pevonedistat): 2.702 | SER (sensitivity enhancement ratio) ([3]; Cal27, 80 nM pevonedistat): 2.702 | cullin neddylation [4]: inhibited cullin neddylation
